From US9216968B2, “Heterocyclic derivative and pharmaceutical drug” (NIPPON SHINYAKU CO., LTD., priority 2011, dated 2015)
Structures can show the parent of a compound that is named as a salt.

Columns and labels:
human mPGES-1 = human mPGES-1 (Homo sapiens (Human), UniProt O14684); assay: mPGES-1 inhibiting activity (microsome fractions, PGE2 by HTRF); type: biochemical; conditions: microsomes from CHO-K1 cells transfected with human mPGES-1; PGH2 1 μM, 4° C., 60 seconds; read-out: mPGES-1 Inhibition IC50
In short: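 PGE2 formation read by HTRF after 60 s at 4 °C with 1 μM PGH2 substrate, following 20 min compound preincubation (1% DMSO) with human mPGES-1 microsomes from transfected CHO-K1 cells. Buffer: potassium phosphate, reduced glutathione, pH 7.4; IC50 from activity relative to enzyme-free blank.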

A549 cells = assay: Inhibition of PGE2 production in A549 cell (IL-1β stimulated); type: cell-based, human; conditions: Homo sapiens, A549, 24 h, IL-1β 5 ng/well, PGE2 in culture medium
In short: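 A549 cells preincubated 60 min with compound in RPMI/3% FBS (final DMSO 0.10), then stimulated with IL-1β (5 ng/well) for 24 h at 37 °C. PGE2 measured by HTRF and PGF2α by EIA in medium; IC50 from inhibition relative to stimulated minus unstimulated production.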

human mPGES-1, sequence (O14684 whole entry): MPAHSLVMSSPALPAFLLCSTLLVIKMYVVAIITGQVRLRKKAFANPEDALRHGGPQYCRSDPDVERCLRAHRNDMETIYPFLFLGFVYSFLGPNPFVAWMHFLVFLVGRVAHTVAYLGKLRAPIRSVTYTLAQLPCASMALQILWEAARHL

Structure (SMILES)	IC50 (human mPGES-1) [nM]	IC50 (A549 cells) [nM]
Cc1c(Cl)cccc1NC(=O)c1cc(NC(=O)c2ccccc2C(F)(F)F)cc2[nH]c([S+](C)[O-])nc12 (centres unmarked) [Example 181, N-(3-Chloro-2-methylphenyl)-2-(methylsulfinyl)-6-({[2-(trifluoromethyl)phenyl]carbonyl}amino)-1H-benzimidazole-4-carboxamide]	1.1	705
COCC(C)(C)c1nc2c(C(=O)Nc3cccc(Cl)c3C)cc(NC(=O)c3ccccc3C(F)(F)F)cc2[nH]1 [Example 75, N-(3-Chloro-2-methylphenyl)-2-(1-methoxy-2-methylpropan-2-yl)-6-({[2-(trifluoromethyl)phenyl]carbonyl}amino)-1H-benzimidazole-4-carboxamide hydrochloride]	31.7	19.7
COCc1nc2c(C(=O)Nc3cccc(Cl)c3C)cc(NC(=O)c3ccccc3Cl)cc2[nH]1 [Example 95, N-(3-Chloro-2-methylphenyl)-6-{[(2-chlorophenyl)carbonyl]amino}-2-(methoxymethyl)-1H-benzimidazole-4-carboxamide hydrochloride]	5.1	105
COCc1nc2c(C(=O)Nc3cccc(Cl)c3C)cc(NC(=O)c3cc(F)ccc3Cl)cc2[nH]1 [Example 94, 6-{[(2-Chloro-5-fluorophenyl)carbonyl]amino}-N-(3-chloro-2-methylphenyl)-2-(methoxymethyl)-1H-benzimidazole-4-carboxamide hydrochloride]	9.1	182
CCc1nc2c(C(=O)NC3CCCCC3)cc(NC(=O)c3ccccc3C(F)(F)F)cc2[nH]1 [Example 18, N-Cyclohexyl-2-ethyl-6-({[2-(trifluoromethyl)phenyl]carbonyl}amino)-1H-benzimidazole-4-carboxamide]	21.6	110
Cc1c(Cl)cccc1NC(=O)c1cc(NC(=O)c2ccccc2C(F)(F)F)cc2[nH]c(Cl)nc12 [Example 135, 2-Chloro-N-(3-chloro-2-methylphenyl)-6-({[2-(trifluoromethyl)phenyl]carbonyl}amino)-1H-benzimidazole-4-carboxamide]	0.3	87.3
Cc1c(Cl)cccc1NC(=O)c1cc(NC(=O)c2ccccc2C(F)(F)F)cc2[nH]c([C@@H]3CCC(=O)N3)nc12 [Example 130, N-(3-Chloro-2-methylphenyl)-2-[(2S)-5-oxopyrrolidin-2-yl]-6-({[2-(trifluoromethyl)phenyl]carbonyl}amino)-1H-benzimidazole-4-carboxamide hydrochloride]	3.9	> 10000
Cc1c(Cl)cccc1NC(=O)c1cc(NC(=O)c2ccccc2C(F)(F)F)cc2[nH]cnc12 [Example 3, N-(3-Chloro-2-methylphenyl)-6-({[2-(trifluoromethyl)phenyl]carbonyl}mino)-1H-benzimidazole-4-carboxamide]	1.5	24.6
Cc1c(Cl)cccc1NC(=O)c1cc(NC(=O)c2ccccc2C(F)(F)F)cc2[nH]c(C(C)(C)C)nc12 [Example 76, 2-tert-Butyl-N-(3-chloro-2-methylphenyl)-6-({[2-(trifluoromethyl)phenyl]carbonyl}amino)-1H-benzimidazole-4-carboxamide hydrochloride]	0.2	5.5
COCc1nc2c(C(=O)Nc3cccc(Cl)c3C)cc(NC(=O)c3cccc(F)c3Cl)cc2[nH]1 [Example 100, 6-{[(2-Chloro-3-fluorophenyl)carbonyl]amino}-N-(3-chloro-2-methylphenyl)-2-(methoxymethyl)-1H-benzimidazole-4-carboxamide hydrochloride]	33.3	122
COCc1nc2c(C(=O)Nc3ccccc3F)cc(NC(=O)c3ccccc3C(F)(F)F)cc2[nH]1 [Example 35, N-(2-Fluorophenyl)-2-(methoxymethyl)-6-({[2-(trifluoromethyl)phenyl]carbonyl}amino)-1H-benzimidazole-4-carboxamide]	20.3	205
COCc1nc2c(C(=O)Nc3cccc(Cl)c3C)cc(NC(=O)c3cc(OCCOC(C)C)ccc3Cl)cc2[nH]1 [Example 114, N-(3-Chloro-2-methylphenyl)-6-[({2-chloro-5-[2-(propan-2-yloxy)ethoxy]phenyl}carbonyl)amino]-2-(methoxymethyl)-1H-benzimidazole-4-carboxamide hydrochloride]	3.5	8.8
Cc1c(Cl)cccc1NC(=O)c1cc(NC(=O)c2ccccc2C(F)(F)F)cc2[nH]c(NCCN(C(C)C)C(C)C)nc12 [Example 155, N-(3-Chloro-2-methylphenyl)-2-{[2-(dipropan-2-ylamino)ethyl]amino}-6-({[2-(trifluoromethyl)phenyl]carbonyl}amino)-1H-benzimidazole-4-carboxamide hydrochloride]	101	209
CNC(=O)Cc1nc2c(C(=O)Nc3cccc(Cl)c3C)cc(NC(=O)c3ccccc3C(F)(F)F)cc2[nH]1 [Example 134, N-(3-Chloro-2-methylphenyl)-2-[2-(methylamino)-2-oxoethyl]-6-({[2-(trifluoromethyl)phenyl]carbonyl}amino)-1H-benzimidazole-4-carboxamide hydrochloride]	10.3	921
COCc1nc2c(C(=O)Nc3cccc(Cl)c3C)cc(NC(=O)c3c(Cl)cccc3Cl)cc2[nH]1 [Example 98, N-(3-Chloro-2-methylphenyl)-6-{[(2,6-dichlorophenyl)carbonyl]amino}-2-(methoxymethyl)-1H-benzimidazole-4-carboxamide hydrochloride]	6	11.9
Cc1nc2c(C(=O)NCc3ccccc3C(F)(F)F)cc(NC(=O)c3ccccc3C(F)(F)F)cc2[nH]1 [Example 12, 2-Methyl-N-[2-(trifluoromethyl)benzyl]-6-({[2-(trifluoromethyl)phenyl]carbonyl}amino)-1H-benzimidazole-4-carboxamide hydrochloride]	7.1	41
COCc1nc2c(C(=O)Nc3ccc4c(c3)CCC4)cc(NC(=O)c3ccccc3C(F)(F)F)cc2[nH]1 [Example 33, N-(2,3-Dihydro-1H-inden-5-yl)-2-(methoxymethyl)-6-({[2-(trifluoromethyl)phenyl]carbonyl}amino)-1H-benzimidazole-4-carboxamide hydrochloride]	3	33.6
COC(C)(C)CNc1nc2c(C(=O)Nc3cccc(Cl)c3C)cc(NC(=O)c3ccccc3C(F)(F)F)cc2[nH]1 [Example 177, N-(3-Chloro-2-methylphenyl)-2-[(2-methoxy-2-methylpropyl)amino]-6-({[2-(trifluoromethyl)phenyl]carbonyl}amino)-1H-benz imidazole-4-carboxamide hydrochloride]	8.3	45.2
Cc1c(Cl)cccc1NC(=O)c1cc(NC(=O)c2ccccc2C(F)(F)F)cc2[nH]c(C3(C)CC3)nc12 [Example 85, N-(3-chloro-2-methylphenyl)-2-(1-methylcyclopropyl)-6-({[2-(trifluoromethyl)phenyl]carbonyl}amino)-1H-benzimidazole-4-carboxamide]	0.5	3.7
Cc1c(Cl)cccc1NC(=O)c1cc(NC(=O)c2ccccc2C(F)(F)F)cc2[nH]c([C@H]3CCC(=O)N3)nc12 [Example 131, N-(3-Chloro-2-methylphenyl)-2-[(2R)-5-oxopyrrolidin-2-yl]-6-({[2-(trifluoromethyl)phenyl]carbonyl}amino)-1H-benzimidazole-4-carboxamide hydrochloride]	32.8	> 10000
COCc1nc2c(C(=O)Nc3cccc(Cl)c3C)cc(NC(=O)c3ccccc3Br)cc2[nH]1 [Example 97, 6-{[(2-Bromophenyl)carbonyl]amino}-N-(3-chloro-2-methylphenyl)-2-(methoxymethyl)-1H-benzimidazole-4-carboxamide hydrochloride]	6.1	43.1
COCc1nc2c(C(=O)Nc3cccc4ccccc34)cc(NC(=O)c3ccccc3C(F)(F)F)cc2[nH]1 [Example 219, 2-(Methoxymethyl)-N-(naphthalen-1-yl)-6-({[2-(trifluoromethyl)phenyl]carbonyl}amino)-1H-benzimidazole-4-carboxamide hydrochloride]	2	26
CC(C)(C)c1nc2c(C(=O)NCc3ncccc3C(F)(F)F)cc(NC(=O)c3ccccc3C(F)(F)F)cc2[nH]1 [Example 77, 2-tert-Butyl-6-({[2-(trifluoromethyl)phenyl]carbonyl}amino)-N-{[3-(trifluoromethyl)pyridin-2-yl]methyl}-1H-benzimidazole-4-carboxamide dihydrochloride]	1.7	32.9
COCc1nc2c(C(=O)Nc3ccc(C)c(Cl)c3)cc(NC(=O)c3ccccc3C(F)(F)F)cc2[nH]1 [Example 32, N-(3-Chloro-4-methylphenyl)-2-(methoxymethyl)-6-({[2-(trifluoromethyl)phenyl]carbonyl}amino)-1H-benzimidazole-4-carboxamide hydrochloride]	5.2	71.7
Cc1c(Cl)cccc1NC(=O)c1cc(NC(=O)c2ccccc2C(F)(F)F)cc2c1OCC2 [Example 8, N-(3-Chloro-2-methylphenyl)-5-({[2-(trifluoromethyl)phenyl]carbonyl}amino)-2,3-dihydro-1-benzofuran-7-carboxamide]	160	106
